The source of these data is the NIST ThermoML archive (doi:10.1021/acs.jced.7b01011).

Numbers after ± are expanded uncertainties.

The conditions of series [1]: Crystal; DTA.
The nature of series [2]: Molar enthalpy of transition or fusion. The settings on record: Crystal; DSC.

Turning to `Cc1ccc(NC(=O)/C(=C/Cl)Sc2ccccc2)cc1` [(Z)-3-chloro-2-phenylthio-N-(p-tolyl)acrylamide], the Normal melting temperature in series [1] is 108.00 ± 1.1 °C. For the same molecule, in series [2], the “Molar enthalpy of transition or fusion” value was found to be 6.16 ± 0.232 kcal/mol.
